What is called melting point is the temperature, or range, at which the solid turns liquid.

We go through six compounds from patent US6413995B1, “Cinnamamide derivatives and drug compositions containing the same” (Tsumura & Co., priority 1999, dated 2002).

One data set relates to IL-12. In words: Inhibition of IL-12 production by mouse peritoneal macrophages (ELISA). The data set is classed as cell-based, mice. The conditions noted are these: Macrophage, 48 hours, read-out: Inhibitory rate (%) IL-12; for inhibition at 10 µM: 10 μM/L; for inhibition at 10 µg/mL: 10 μg/ml; for inhibition at 50 µg/mL: 50 μg/ml; for inhibition at 100 µg/mL: 100 μg/ml. The protocol: (§1) C57BL/6CrSlc male mice were intraperitoneally injected with 2.0 ml of 3% Brewer tioglycolate medium. Three days later, macrophages were collected from the abdominal cavity with 5.0 ml Hank's balanced salt solution, and then equally divided into each well of a 48-well plate using RPMI 1640 medium supplemented with 10% FBS (Fetal Bovine Serum), followed by incubation in a CO2 incubator for 1 hour. After the macrophages adhered to the walls of the plate, they were incubated for 48 hours in the presence of a test compound with different concentrations. Following the incubation, the supernatant was collected from each well, assayed for IL-6, IL-10 and L-12 by ELISA to determine inhibitory rates against the production of these interleukins.
In general terms: In an ELISA, binding on a coated surface is turned into a signal by an enzyme label.

The next data set concerns IL-6. In words: Inhibition of IL-6 production by mouse peritoneal macrophages (ELISA). The class given is cell-based, mice. The conditions noted are these: Macrophage, 48 hours, read-out: Inhibitory rate (%) IL-6; for inhibition at 10 µg/mL: 10 μg/ml; for inhibition at 50 µg/mL: 50 μg/ml; for inhibition at 100 µg/mL: 100 μg/ml. The protocol:
as §1

A further data set concerns IL-10. Kind of data set: Inhibition of IL-10 production by mouse peritoneal macrophages (ELISA). The data set is classed as cell-based, mice. Conditions: Macrophage, 48 hours, read-out: Inhibitory rate (%) IL-10; for inhibition at 10 µg/mL: 10 μg/ml; for inhibition at 50 µg/mL: 50 μg/ml; for inhibition at 100 µg/mL: 100 μg/ml. As for the experimental part:
as §1

Data set [1] concerns Rats with Minimal Change Nephrosis. Kind of data set: Inhibitory effects on urinary proteins in rats with minimal change nephrosis (Puromycin Aminonucleoside). The data set is classed as in vivo. The conditions noted are these: S.D. male rats, PA 50 mg/kg i.v., test drug 2 mg/kg/day from day 6 to day 11, assayed at day 11. As for the experimental part: Six week old S.D. male rats were intravenously injected with Puromycin Aminonucleoside (PA; SIGMA)at a dose of 50 mg/kg so as to develop nephrosis. Six days after PA treatment, the rats were administered with a test drug at a dose of 2 mg/kg/day by day 11. Each rat was assayed for an excreted urinary protein level at day 11 to determine an inhibitory rate.

In the next data set the target is T1, Thromboxane A2 Synthase (Rattus norvegicus, UniProt P49430).
T1 construct: centrifuged at 1,300 rpm for 7 minutes to obtain platelet rich plasma (PRP); from tissue; host or cells: platelet rich plasma (washed platelets) from the abdominal aorta blood of Sprague-Dawley rats
T1 sequence (P49430 1-533): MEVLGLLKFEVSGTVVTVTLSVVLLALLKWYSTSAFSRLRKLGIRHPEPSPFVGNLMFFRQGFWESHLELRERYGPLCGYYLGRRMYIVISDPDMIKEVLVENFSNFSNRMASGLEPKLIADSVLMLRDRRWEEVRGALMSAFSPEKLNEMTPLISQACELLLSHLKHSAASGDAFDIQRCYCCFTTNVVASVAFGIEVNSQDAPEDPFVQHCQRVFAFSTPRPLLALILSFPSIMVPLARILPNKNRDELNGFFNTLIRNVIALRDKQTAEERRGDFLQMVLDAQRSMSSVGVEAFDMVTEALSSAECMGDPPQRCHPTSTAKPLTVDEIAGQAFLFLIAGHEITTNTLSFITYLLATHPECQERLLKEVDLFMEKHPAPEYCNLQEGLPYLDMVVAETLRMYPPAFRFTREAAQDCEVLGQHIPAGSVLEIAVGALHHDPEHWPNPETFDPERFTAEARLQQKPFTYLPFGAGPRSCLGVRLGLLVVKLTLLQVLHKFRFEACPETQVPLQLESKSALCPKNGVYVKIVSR
In words: Inhibitory effect on thromboxane A2 synthase: TXB2 in rat platelet rich plasma. The class given is cell-based, rats. Conditions: 10 μmol/l, rat PRP. As for the experimental part:
Eight week old Sprague-Dawley male rats were used in this example. The rats were anesthetized with pentobarbital sodium. The blood was collected from the abdominal aorta using a heparinized syringe, and centrifuged at 1,300 rpm for 7 minutes to obtain platelet rich plasma (PRP). PRP was suspended in an equivalent volume of a buffer containing 25 mmol/l Tris-HCl, 130 mmol/l sodium chloride and 0.3 mmol/l EDTA (pH 7.4)(buffer A), followed by centrifugation at 4° C., at 1,500 rpm for 5 minutes. This procedure was repeated twice, and PRP was finally suspended in a buffer containing 25 mmol/l Tris-HCl, 130 mmol/l, 0.1% glucose and 0.1% albumin (pH7.4)(buffer B).
5×10^6 cells/mm^3 PRP preparation in buffer B was divided into each well of a 96-well plate in an amount of 150 μl/well. Each test substance was prepared at a final concentration of 10 μmol/l and added to the PRP preparation in an amount of 50 μl/well. Immediately after addition of the test substance, 5 μl of an aggregation-inducing agent, type IV collagen (1 mg/ml) or arachidonic acid (50 mmol/l), was added and incubated for 10 minutes. 20 μl of an EDTA-indomethacin solution was added to the each well to stop the reaction. The supernatant was assayed for thromboxane B2 (TXB2), stable metabolite of thromboxane A2 (TXA2), using a TXB2 measurement kit (Cayman).

Each structure is given as a SMILES string. Where two headings read alike, the source gives them in different places. A value given as a limit tells only on which side of the number the result lay.

The compound `C/C(=C\C(=O)NCc1cccnc1)c1ccc(OCC(=O)O)cc1` [Example 86, [4-[(E)-1-methyl-2-[N-(3-pyridylmethyl)carbamoyl]ethenyl]phenoxy]acetic acid] gave a melting point of 228 to 229 °C. In the data set with IL-12, the inhibition at 10 µM turned out to be 48.4%.

As to `Cl.O=C(O)COc1ccc(/C=C/C(=O)NCc2cccnc2)cc1` [Example 36, [4-[(E)-2-[N-(3-pyridylmethyl)carbamoyl]ethenyl]phenoxy]acetic acid hydrochloride], in the data set with IL-6, the inhibition at 10 µg/mL amounted to 53.1%, the inhibition at 50 µg/mL was 56.7% and the inhibition at 100 µg/mL was found to be 21.7%. Also, in the data set with IL-10, the inhibition at 10 µg/mL was -45.8%, the inhibition at 50 µg/mL was -13% and the inhibition at 100 µg/mL worked out at 22.2%. In the data set on IL-12, the inhibition at 10 µg/mL was 52.1%, the inhibition at 50 µg/mL is 82.1% and the inhibition at 100 µg/mL worked out at 64%. Also, the “Inhibitory rate (%) of excreted urinary protein level” value (shortened to “Inhibitory rate (%)”) in data set [1] worked out at 29%.

For `Cl.O=C(O)CCc1ccc(/C=C/C(=O)NCc2cccnc2)cc1`, the melting point worked out at 212 °C.

With `CCOC(=O)COc1ccc(/C=C/C(=O)NCc2cccnc2)cc1` [Example 1, Ethyl [4-[(E)-2-[N-(3-Pyridylmethyl)carbamoyl]ethenyl]phenoxy]acetate], the inhibition at 1 µg/mL in the data set on IL-6 (1 μg/ml) was 29.3%; in the data set on IL-10 (1 μg/ml) it was 2.1%; with IL-12 (1 μg/ml), 32.4%. The inhibition at 5 µg/mL with IL-6 (5 μg/ml) came out at 34.5%; in the data set on IL-10 (5 μg/ml), 29.1%; with IL-12 (5 μg/ml), 39.5%. For the same compound, the values for the inhibition at 10 µg/mL with IL-6, in the data set with IL-10 and with IL-12 were 40.4%, 23.7% and 64.6%, respectively. Further, the inhibition at 10 µM on Thromboxane A2 Synthase (arachidonic acid, 10 minutes, read-out: TXB2 induced by arachidonic acid (Inhibitory rate; %)) was 67%; on Thromboxane A2 Synthase (type IV collagen, 10 minutes, read-out: TXB2 induced by collagen (Inhibitory rate; %)), 32%; on Thromboxane A2 Synthase (summary of Table 3, read-out: inhibitory activity against TXA2 production mediated by collagen or arachidonate), ≥ 50%. Besides, the “Inhibitory rate (%)” value in data set [1] turned out to be 41%.

Take `CCOC(=O)COc1ccc(/C=C/C(=O)NCCc2cccnc2)cc1` [Example 10]: in the data set with IL-6, the inhibition at 10 µg/mL stood at 61.2%, the inhibition at 50 µg/mL was 63.5% and the inhibition at 100 µg/mL came to 61.6%. Also, in the data set with IL-10, the inhibition at 10 µg/mL came to 29.5%, the inhibition at 50 µg/mL is 33.3% and the inhibition at 100 µg/mL was 27.8%. In the data set with IL-12, the inhibition at 10 µg/mL came to 30.3%, the inhibition at 50 µg/mL is 27.8% and the inhibition at 100 µg/mL is 35%. The “Inhibitory rate (%)” value in data set [1] worked out at 56%.

In turn, `O=C(O)CSc1ccc(/C=C/C(=O)NCc2cccnc2)cc1` [Example 89, [[4-[(E)-2-[N-(3-pyridylmethyl)carbamoyl]ethenyl]phenyl]thio]acetic acid] displayed a melting point of 160 to 161 °C. The inhibition at 10 µM with IL-12 came to 51.1%.
